Reference: US11306078B2, “Piperidine CXCR7 receptor modulators” (IDORSIA PHARMACEUTICALS LTD., priority 2016, dated 2022)

Target: human chemokine receptor CXCR7 (Homo sapiens (Human), UniProt P25106)
Experiment: Tango CXCR7-bla U2OS beta-arrestin recruitment assay (beta-lactamase reporter, FRET), antagonism of CXCL12/SDF1-α;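 further: compounds preincubated 15 min before CXCL12 addition, then 22 h at 37 °C, FRET emission ratio read with CCF4-AM substrate after 2 h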
Assay type: cell-based
Settings: antagonistic effect on CXCR7; Tango CXCR7-bla U2OS cells, CXCL12/SDF1-α at its EC80

Chain of human chemokine receptor CXCR7 (P25106 whole entry): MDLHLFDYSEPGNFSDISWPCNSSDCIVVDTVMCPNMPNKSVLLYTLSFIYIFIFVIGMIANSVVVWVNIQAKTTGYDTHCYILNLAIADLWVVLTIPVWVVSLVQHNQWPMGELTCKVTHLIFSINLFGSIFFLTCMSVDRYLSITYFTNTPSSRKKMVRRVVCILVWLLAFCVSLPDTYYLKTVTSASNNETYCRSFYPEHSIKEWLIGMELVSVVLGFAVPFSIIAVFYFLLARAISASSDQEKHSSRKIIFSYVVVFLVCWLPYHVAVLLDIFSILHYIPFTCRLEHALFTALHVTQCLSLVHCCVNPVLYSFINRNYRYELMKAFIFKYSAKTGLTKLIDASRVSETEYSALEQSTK

Row | Molecule | IC50 [nM]
1 | CN(CCc1ccccn1)C(=O)[C@@H]1CN(C2CCCCC2)CC[C@H]1NC(=O)c1cc(-c2ccc(F)cc2F)on1 (racemic) [Example 1.075, rac-(3R*,4R*)-1-Cyclohexyl-4-{[5-(2,4-difluoro-phenyl)-isoxazole-3-carbonyl]-amino}-piperidine-3-carboxylic acid methyl-(2-pyridin-2-yl-ethyl)-amide] | 44
2 | O=C(N[C@@H]1CCN(C2CCCCC2)C[C@H]1C(=O)NC1(c2ccccn2)CC1)c1noc(-c2ccc(F)cc2F)n1 [Example 3.01] | 69
3 | O=C(N[C@H]1CCN(CC2CC2)C[C@@H]1C(=O)NC1(c2ccccc2)CCC1)c1cc(-c2ccc(F)cc2F)on1 [Example 4.057] | 13
4 | COCC(C)(C)NC(=O)[C@@H]1CN(C2CCCCC2)CC[C@H]1NC(=O)c1cc(-c2c(F)cc(F)cc2F)on1 (single isomer, unassigned) [Example 1.111a, (3R*,4R*)-1-Cyclohexyl-4-{[5-(2,4,6-trifluoro-phenyl)-isoxazole-3-carbonyl]-amino}-piperidine-3-carboxylic acid (2-methoxy-1,1-dimethyl-ethyl)-amide] | 944
5 | COCCNC(=O)[C@@H]1CN(C2CCCCC2)CC[C@H]1NC(=O)c1cc(-c2ccc(F)cc2F)on1 (racemic) [Example 1.006, rac-(3R*,4R*)-1-Cyclohexyl-4-{[5-(2,4-difluoro-phenyl)-isoxazole-3-carbonyl]-amino}-piperidine-3-carboxylic acid (2-methoxy-ethyl)-amide] | 414
6 | Cc1csc(CNC(=O)[C@@H]2CN(C3CCCCC3)CC[C@H]2NC(=O)c2cc(-c3ccc(F)cc3F)on2)n1 (racemic) [Example 1.068, rac-(3R*,4R*)-1-Cyclohexyl-4-{[5-(2,4-difluoro-phenyl)-isoxazole-3-carbonyl]-amino}-piperidine-3-carboxylic acid (4-methyl-thiazol-2-ylmethyl)-amide] | 512
7 | Cn1cc(C(C)(C)NC(=O)[C@H]2CN(CC3CC3)CC[C@@H]2NC(=O)c2cc(-c3ccc(F)cc3F)on2)cn1 [Example 4.043] | 158
8 | C[C@@H](NC(=O)[C@@H]1CN(CC2CC2)CC[C@H]1NC(=O)c1cc(-c2c(F)cc(F)cc2F)on1)C1CCC1 (relative stereo) [Example 1.139, (3R*,4R*)-1-Cyclopropylmethyl-4-{[5-(2,4,6-trifluoro-phenyl)-isoxazole-3-carbonyl]-amino}-piperidine-3-carboxylic acid ((R)-1-cyclobutyl-ethyl)-amide] | 50
9 | CN(C)C(=O)[C@@H]1CN(CC2CC2)CC[C@H]1NC(=O)c1cc(-c2ccc(F)cc2F)on1 [Example 2.029] | 60
10 | C[C@@H]1CCC[C@H]1N1CC[C@@H](NC(=O)c2cc(-c3ccc(F)cc3F)no2)[C@H](C(=O)N[C@H](C)c2ccccn2)C1 (relative stereo) [Example 1.155, (3R*,4R*)-4-{[3-(2,4-Difluoro-phenyl)-isoxazole-5-carbonyl]-amino}-1-((1RS,2RS)-2-methyl-cyclopentyl)-piperidine-3-carboxylic acid ((R)-1-pyridin-2-yl-ethyl)-amide] | 315
11 | O=C(N[C@@H]1CCN(CC2CC2)C[C@H]1C(=O)NC1(c2ncccn2)CC1)c1noc(-c2ccc(F)cc2)c1F (racemic) [Example 3.021, rac-(3R*,4R*)-1-Cyclopropylmethyl-4-{[4-fluoro-5-(4-fluoro-phenyl)-isoxazole-3-carbonyl]-amino}-piperidine-3-carboxylic acid (1-pyrimidin-2-yl-cyclopropyl)-amide] | 40
12 | (3R*,4R*)-1-Cyclopropylmethyl-4-{[3-(2,4-difluoro-phenyl)-isoxazole-5-carbonyl]-amino}-piperidine-3-carboxylic acid ((1S*,2R*)-2-phenyl-cyclopropyl)-amide and (3R*,4R*)-1-Cyclopropylmethyl-4-{[3-(2,4-difluoro-phenyl)-isoxazole-5-carbonyl]-amino}-piperidine-3-carboxylic acid ((1R*,2S*)-2-phenyl-cyclopropyl)-amide [Example 1.164] | 267
13 | CN(CCc1ccccc1)C(=O)[C@@H]1CN(C2CCCC2)CC[C@H]1NC(=O)c1cc(-c2ccc(F)cc2F)on1 [Example 2.005] | 25
14 | CN(CCc1ccccn1)C(=O)[C@@H]1CN(CC2CC2)CC[C@H]1NC(=O)c1cc(-c2ccc(F)cc2F)on1 [Example 2.079] | 38
15 | COC(=O)C1CN(C2CCCCC2)CCC1NC(=O)c1noc(-c2ccc(F)c(F)c2)n1 (centres unmarked) [BB 1.18c] | 119
16 | O=C(N[C@@H]1CCN(CC2CC2)C[C@H]1C(=O)NC1(c2ncccn2)CC1)c1cc(-c2c(F)cc(F)cc2F)on1 (single isomer, unassigned) [Example 3.020a, (3R*,4R*)-1-Cyclopropylmethyl-4-{[5-(2,4,6-trifluoro-phenyl)-isoxazole-3-carbonyl]-amino}-piperidine-3-carboxylic acid (1-pyrimidin-2-yl-cyclopropyl)-amide] | 271
17 | Cn1cc(C(C)(C)NC(=O)[C@H]2CN(C3CCCC3)CC[C@@H]2NC(=O)c2cc(-c3ccc(F)cc3F)on2)cn1 [Example 4.034] | 255
18 | O=C(N[C@H]1CCN(CC2CC2)C[C@@H]1C(=O)NC1(c2cccc(F)c2)CC1)c1cc(-c2ccc(F)cc2F)on1 [Example 4.063] | 142
19 | C#CC(C)NC(=O)[C@H]1CN(CC2CC2)CC[C@@H]1NC(=O)c1cc(-c2ccc(F)cc2F)on1 (some centres unmarked) [Example 4.048] | 247
20 | O=C(N[C@H]1CCN(C2CCC2)C[C@@H]1C(=O)NC1(c2ncccn2)CC1)c1nnc(-c2ccc(F)cc2F)s1 [Example 2.105] | 60
21 | CN(C)C(=O)[C@@H]1CN(Cc2ccccc2Cl)CC[C@H]1NC(=O)c1cc(-c2ccc(F)cc2F)on1 [Example 2.082] | 342
22 | Cc1ccccc1CCNC(=O)[C@@H]1CN(C2CCCCC2)CC[C@H]1NC(=O)c1cc(-c2ccc(F)cc2F)on1 (racemic) [Example 1.056, rac-(3R*,4R*)-1-Cyclohexyl-4-{[5-(2,4-difluoro-phenyl)-isoxazole-3-carbonyl]-amino}-piperidine-3-carboxylic acid (2-o-tolyl-ethyl)-amide] | 4
23 | O=C(N[C@@H]1CCN(C2CCCCC2)C[C@H]1C(=O)NCc1cccnc1)c1cc(-c2ccc(F)cc2F)on1 (racemic) [Example 1.048, rac-(3R*,4R*)-1-Cyclohexyl-4-{[5-(2,4-difluoro-phenyl)-isoxazole-3-carbonyl]-amino}-piperidine-3-carboxylic acid (pyridin-3-ylmethyl)-amide] | 275
24 | O=C(N[C@@H]1CCN(C2CCC2)C[C@H]1C(=O)NCC1(c2ccccn2)CC1)c1cc(-c2ccc(F)cc2F)on1 [Example 4.093] | 165
25 | COCC(C)(C)NC(=O)[C@@H]1CN(C2CCCC2)CC[C@H]1NC(=O)c1cn(-c2ccc(F)cc2F)nn1 (racemic) [Example 1.109, rac-(3R*,4R*)-1-Cyclopentyl-4-{[1-(2,4-difluoro-phenyl)-1H-[1,2,3]triazole-4-carbonyl]-amino}-piperidine-3-carboxylic acid (2-methoxy-1,1-dimethyl-ethyl)-amide] | 902
26 | CC(C)(NC(=O)[C@H]1CN(CC2CC2)CC[C@@H]1NC(=O)c1cc(-c2ccc(F)cc2F)on1)c1ncccn1 [Example 4.102] | 1
